Source: patent US8754079B2, “Cycloalkyl containing thienopyrimidines for pharmaceutical compositions” (Boehringer Ingelheim International GmbH, priority 2010, dated 2014)

Molecular target: T1, MNK2 (Homo sapiens, UniProt Q9HBH9)
T1 construct: the open reading frames of human Mnk1 and Mnk2a were amplified from cDNA; made in house; host or cells: E. coli BL21
Assay: Mnk2a in vitro kinase assay (indirect fluorescence polarization)
Format: biochemical
Conditions: pre-activated GST-Mnk2a 2.5 nM, 20 μM ATP, 30 μM substrate peptide
Procedure: Inhibitory potency of compounds against Mnk1, Mnk2a and other kinases was assessed with assays based on a format known to those skilled in the art as the indirect (competitive) fluorescence polarization. The assay detection system comprises a small fluorophore-labeled phospho-peptide (termed ligand) bound to a phospho-specific antibody. The product generated by the kinase reaction competes with the ligand for antibody binding. Based on the larger molecular volume of the bound ligand, which results in a lower rotation rate in solution, its emitted light has a higher degree of polarization than the one from the free ligand.
Example 2a. Mnk1 and Mnk2a in vitro kinase assay
As a source of enzyme, human Mnk1 and human Mnk2a were expressed as GST fusion proteins in E. coli, purified to >80% homogeneity by glutathione affinity chromatography and activated in vitro with pre-activated ERK2. In brief, the open reading frames of human Mnk1 and Mnk2a were amplified from cDNA using the forward/reverse primer pairs
(utilized restriction sites underlined), respectively, and cloned into the BamHI and SalI sites of the vector pGEX-4T1 (Amersham, Sweden, cat. no. 27-4580-01). These constructs allow prokaryotic expression of Mnk1 or Mnk2a as fusion protein with a N-terminal glutathione S-transferase (GST) tag, referred to as GST-Mnk1 or GSTMnk2a. The following expression and purification procedure was identical for GSTMnk1 and GST-Mnk2a, referring in general to GST-Mnk, when not distinguishing between the two isoforms. Expression of GST-Mnk was in E. coli BL21 (Merck Biosciences, Germany, cat. no. 69449). Cells were grown in LB-Bouillon (Merck, Germany, cat. no. 1.10285) supplemented with 100 μg/ml ampicillin (Sigma, Germany, cat. no. A9518) at 37° C. When the culture had reached a density corresponding to an A600 of 0.8, an equal volume of ice cold LB/ampicillin was added, the culture transferred to 25° C. and induced for 4 h with 1 mM isopropyl thiogalactoside (IPTG, Roth, Germany, cat. no. 2316.4). Cells harvested by centrifugation were resuspended in 10 ml lysis buffer (50 mM tris(hydroxymethyl)aminomethane hydrochloride (Tris/HCl, Sigma, Germany, cat. no. T5941) pH 7.5, 300 mM sodium chloride (NaCl, Sigma, Germany, cat. no. S7653), 5% (w/v) glycerol (Sigma, Germany, cat. no. G5516), 3 mM DTT dithiotreitol (DTT, Sigma, Germany, cat. no. D9779)) per gram wet weight cell pellet. Lysates were prepared by disruption of cells with a sonifier and subsequent clearing by centrifugation at 38000 g for 45 min at 4° C.
The lysate was applied to a GSTPrep FF 16/10 column (Amersham, Sweden, cat. no. 17-5234-01) equilibrated with lysis buffer. Removal of unbound material was with 3 column volumes (CV) lysis buffer. Elution was with 2 CV of elution buffer (50 mM Tris/HCl pH 7.5, 300 mM NaCl, 5% (w/v) glycerol, 20 mM glutathione (Sigma, Germany, cat. no. G4251)). Peak fractions were pooled and the protein transferred into storage buffer (50 mM Tris/HCl pH 7.5, 200 mM NaCl, 0.1 mM ethylene glycolbis(2-aminoethylether)-N,N,N′,N′-tetraacetic acid (EGTA, Aldrich, Germany, cat. no. 23, 453-2), 1 mM DTT, 10% (w/v) glycerol, 0.5 M sucrose (Sigma, Germany, cat. no. S0389) by gel filtration on a PD10 desalting column (Amersham, Sweden, cat. no. 17-0851-01). Aliquots were shock frozen in liquid nitrogen and stored at −80° C.
Activation of Mnk1 and Mnk2a was at a concentration of 2.5 μM of either purified GST-Mnk1 or GST-Mnk2a by incubation with 150 nM pre-activated NHis-ERK2 (see ERK2 assay for preparation) and 50 μM adenosine triphosphate (ATP, Sigma, cat. no. A2699) in a buffer comprising 20 mM N-(2-hydroxyethyl)piperazine-N′-(2-ethanesulfonic acid) (HEPES, Fluka, Germany, cat. no 54459)/potassium hydroxide (KOH, Roth, Germany, cat. no 6751.1) pH 7.4, 10 mM magnesium chloride (MgCl2, Sigma, Germany, cat. no. M2670), 0.25 mM DTT, 0.05% (w/v) polyoxyethylene 20 stearylether (Brij 78, Sigma, Germany, cat. no. P4019) (HMDB buffer) for 45 min at 30° C. […]

T1 sequence (Q9HBH9 whole entry): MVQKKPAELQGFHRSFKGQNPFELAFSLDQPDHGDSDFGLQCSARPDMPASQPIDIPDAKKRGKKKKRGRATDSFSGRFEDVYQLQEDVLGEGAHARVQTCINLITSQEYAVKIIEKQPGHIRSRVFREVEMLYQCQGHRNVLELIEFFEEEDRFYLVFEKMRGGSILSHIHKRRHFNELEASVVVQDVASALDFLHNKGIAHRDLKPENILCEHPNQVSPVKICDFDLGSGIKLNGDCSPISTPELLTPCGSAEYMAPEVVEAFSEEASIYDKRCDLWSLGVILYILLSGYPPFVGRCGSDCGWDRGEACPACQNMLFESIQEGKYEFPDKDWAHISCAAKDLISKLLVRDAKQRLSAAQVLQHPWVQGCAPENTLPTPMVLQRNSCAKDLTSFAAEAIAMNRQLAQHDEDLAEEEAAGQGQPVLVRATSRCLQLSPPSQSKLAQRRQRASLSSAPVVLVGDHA

| IC50 [nM] | Structure (SMILES) |
| --- | --- |
| 36 | CN[C@H]1CCC[C@H](Oc2cc(F)ccc2Nc2ncnc3sc(C(N)=O)c(C)c23)C1 (relative stereo) [Example 18, 4-(4-Fluoro-2-(trans-3-(N-methylamino)cyclohexyloxy)phenylamino)-5-methylthieno[2,3-d]pyrimidine-6-carboxamide] |
| 9 | COC(=O)c1sc2ncnc(Nc3ccc(F)cc3OC3C[C@@H](O)C[C@H](O)C3)c2c1C (relative stereo) [Example 30.1] |
| 33 | CO[C@H]1CCC[C@@H](Oc2ncccc2Nc2ncnc3sc(C(=O)NCC4COCCN4)c(C)c23)C1 (relative stereo) [Example 120] |
| 44 | CO[C@H]1CCC[C@@H](Oc2ncccc2Nc2ncnc3sc(C(=O)NCC(C)O)c(C)c23)C1 (relative stereo) [Example 125] |
| 23 | CO[C@H]1CCC[C@@H](Oc2ncccc2Nc2ncnc3sc(C(=O)NCCCO)c(C)c23)C1 (relative stereo) [Example 126] |
| 49 | CO[C@@H]1CCC[C@@H](Oc2ncccc2Nc2ncnc3sc(C(=O)NCC4CNCCO4)c(C)c23)C1 (relative stereo) [Example 140] |
| 77 | CO[C@@H]1CCC[C@@H](Oc2ncccc2Nc2ncnc3sc(C(=O)NCCO)c(C)c23)C1 (relative stereo) [Example 143] |
| 8 | Cc1c(C(N)=O)sc2ncnc(Nc3ccc(F)cc3OC3C[C@@H](O)[C@H](O)C3)c12 (relative stereo) [Example 211] |
| 10 | Cc1c(C(N)=O)sc2ncnc(Nc3ccc(F)cc3O[C@@H]3CC[C@@H](O)[C@H]3O)c12 (relative stereo) [Example 221] |
| 41 | Cc1c(C(=O)NCCCN(C)C)sc2ncnc(Nc3ccc(F)cc3O[C@@H]3CC[C@@H](O)[C@H]3O)c12 (relative stereo) [Example 222] |
| 18 | Cc1c(C(N)=O)sc2ncnc(Nc3ccc(F)cc3O[C@@H]3CC[C@H](O)[C@@H]3O)c12 (relative stereo) [Example 223] |
| 8 | Cc1c(C(N)=O)sc2ncnc(Nc3ccc(F)cc3O[C@@H]3CCC[C@@H]3O)c12 (relative stereo) [Example 224] |
| 33 | COC(=O)[C@H](CO)NC(=O)c1sc2ncnc(Nc3ccc(F)cc3O[C@H]3CC[C@H](OC)CC3)c2c1C (relative stereo) [Example 272, 2-({-4-[4-Fluoro-2-(trans-4-methoxy-cyclohexyloxy)-phenylamino]-5-methyl-thieno[2,3-d]pyrimidine-6-carbonyl}-amino)-3-hydroxy-propionic acid methyl ester] |
| 1290 | COC(=O)c1sc2ncnc(Nc3ccc(F)cc3O[C@@H]3CCCC[C@@H]3O)c2c1C (single isomer, unassigned) [Example 256, 4-[4-fluoro-2-(cis-2-hydroxy-cyclohexyloxy)-phenylamino]-5-methyl-thieno[2,3-d]pyrimidine-6-carboxylic acid methyl ester] |
| 141 | COC(=O)c1sc2ncnc(Nc3ccc(F)cc3O[C@H]3CCCC[C@H]3O)c2c1C (single isomer, unassigned) [Example 257, 4-[4-fluoro-2-(cis-2-hydroxy-cyclohexyloxy)-phenylamino]-5-methyl-thieno[2,3-d]pyrimidine-6-carboxylic acid methyl ester] |
| 110 | Cc1c(C(=O)O)sc2ncnc(Nc3ccc(F)cc3O[C@@H]3CCCC[C@@H]3O)c12 (single isomer, unassigned) [Example 258, 4-[4-fluoro-2-(cis-2-hydroxy-cyclohexyloxy)-phenylamino]-5-methyl-thieno[2,3-d]pyrimidine-6-carboxylic acid] |
| 346 | Cc1c(C(=O)NC2CCN(C)CC2)sc2ncnc(Nc3ccc(F)cc3OC3CCCCC3O)c12 (single isomer, unassigned) [Example 259] |
| 255 | Cc1c(C(=O)NCCCN2CCCC2)sc2ncnc(Nc3ccc(F)cc3OC3CCCCC3O)c12 (single isomer, unassigned) [Example 260] |
| 23 | Cc1c(C(=O)O)sc2ncnc(Nc3ccc(F)cc3O[C@H]3CCCC[C@H]3O)c12 (single isomer, unassigned) [Example 262, 4-[4-fluoro-2-(cis-2-hydroxy-cyclohexyloxy)-phenylamino]-5-methyl-thieno[2,3-d]pyrimidine-6-carboxylic acid] |
| 54 | Cc1c(C(=O)NC2CCN(C)CC2)sc2ncnc(Nc3ccc(F)cc3OC3CCCCC3O)c12 (single isomer, unassigned) [Example 265] |
| 10 | Cc1c(C(N)=O)sc2ncnc(Nc3ccc(F)cc3O[C@H]3CC[C@H](NS(C)(=O)=O)CC3)c12 [Example 3, 4-[4-Fluoro-2-(trans-4-methanesulfonylamino-cyclohexyloxy)-phenylamino]-5-methyl-thieno[2,3-d]pyrimidine-6-carboxylic acid amide] |
| 23 | Cc1c(C(N)=O)sc2ncnc(Nc3ccc(F)cc3O[C@H]3CC[C@H](N(C)S(C)(=O)=O)CC3)c12 [Example 4, 4-(4-Fluoro-2-(trans-4-(N-methylmethylsulfonamido)cyclohexyloxy)phenylamino)-5-methylthieno[2,3-d]pyrimidine-6-carboxamide] |
| 3 | CC(=O)N[C@H]1CC[C@H](Oc2cc(F)ccc2Nc2ncnc3sc(C(N)=O)c(C)c23)CC1 [Example 5, 4-(2-(trans-4-acetamidocyclohexyloxy)-4-fluorophenylamino)-5-methylthieno[2,3-d]pyrimidine-6-carboxamide] |
| 7 | CC(=O)N[C@H]1CC[C@H](Oc2cc(F)ccc2Nc2ncnc3sc(C(=O)NCCCN(C)C)c(C)c23)CC1 [Example 6] |
| 7 | CC(=O)N(C)[C@H]1CC[C@H](Oc2cc(F)ccc2Nc2ncnc3sc(C(N)=O)c(C)c23)CC1 [Example 7] |
| 12 | CC(=O)N(C)[C@H]1CC[C@H](Oc2cc(F)ccc2Nc2ncnc3sc(C(=O)NCCCN(C)C)c(C)c23)CC1 [Example 8, N-(3-(dimethylamino)propyl)-4-(4-fluoro-2-(trans-4-(N-methylacetamido)cyclohexyloxy)phenylamino)-5-methylthieno[2,3-d]pyrimidine-6-carboxamide] |
| 5900 | Cc1c(C(N)=O)sc2ncnc(Nc3ccc(F)cc3O[C@H]3CC[C@@H](N(C)S(C)(=O)=O)CC3)c12 [Example 9, 4-(4-Fluoro-2-(cis-4-(N-methylmethylsulfonamido)cyclohexyloxy)phenylamino)-5-methylthieno[2,3-d]pyrimidine-6-carboxamide] |
| 2500 | CC(=O)N(C)[C@H]1CC[C@@H](Oc2cc(F)ccc2Nc2ncnc3sc(C(N)=O)c(C)c23)CC1 [Example 10] |
| 7 | COC(=O)N(C)[C@H]1CC[C@H](Oc2cc(F)ccc2Nc2ncnc3sc(C(N)=O)c(C)c23)CC1 [Example 11, Methyl trans-4-(2-(6-carbamoyl-5-methylthieno[2,3-d]pyrimidin-4-ylamino)-5-fluorophenoxy)cyclohexyl(methyl)carbamate] |
| 7 | CN[C@H]1CC[C@H](Oc2cc(F)ccc2Nc2ncnc3sc(C(N)=O)c(C)c23)CC1 [Example 12, 4-(4-Fluoro-2-(trans-4-(methylamino)cyclohexyloxy)phenylamino)-5-methylthieno[2,3-d]pyrimidine-6-carboxamide] |
